Assays:
[1] = Solubility of the compound in water; type: physicochemical
NCI-H446 cells = experiment: NCI-H446 cell growth inhibition test (MTT assay); type: cell-based, human; conditions: growth inhibition at 222 nM, 70 h
Experimental: NCI-H446 Cell Growth Inhibition Test (MTT Assay)
Cell strains: NCI-H446 (human small cell lung cancer cell strains); MTT; antitumor compounds; DMSO.
(§1) II. Reagents and Consumable Materials
(§2) Culture medium: 90% RPMI-1640+10% FBS; Pancreatin (0.25% (w/v) solution was formulated with PBS, 0.53 mM of EDTA was added in the formulation); PBS; 96-well culture plate.
(§3) 1. A plate (10 cm) of cells in logarithmic growth phase that were normally cultured was collected;
(§4) 2. The culture solution was sucked out. The plate was washed with 5 mL of PBS once or twice;
(§5) 3. PBS was sucked out. 1.5 mL of 0.25% pancreatin was added to infiltrate the cells;
4. The culture plate was placed in an incubator. Digestion was carried out for about 3 min at 37° C.;
(§6) 5. 3 mL of complete culture solution was added to the culture plate to stop the digestion. The cells were carefully scoured with micropipette (1 ml) to give a uniform cell suspension. The suspension was implanted into a 96-well cell culture disc by 4000 cells/100 μL per well. The culture plate was incubated overnight under 5% CO2 at 37° C. In day 2, 100 μL of culture solution comprising a compound was added in each well. The plate was further incubated for 70 h under 5% CO2 at 37° C.;
(§7) 6. The culture solution was sucked out;
(§8) 7. 100 μL of serum-free culture solution containing 0.5 mg/mL MTT was added in each well. The plate was incubated for 3 h;
(§9) 8. The culture solution was carefully sucked out;
(§10) 9. 100 μL of DMSO was added into each well and vibrated to dissolve;
(§11) 10. OD values were determined at 490 nM.
(§12) IV. Results and Treatments
(§13) 1. Calculation of Relative Inhibition Ratio The inhibition ratio of a compound on cell growth=(PC−n)/(PC−NC)×100%
(§14) PC: OD values of cells after normal growth in control wells without a compound;
(§15) n: OD values of cells after growth in test wells with a compound;
(§16) NC: Background OD values of blank wells without a compound and cells.

SK-OV-3 cells = experiment: SK-OV-3 cell growth inhibition test (MTT assay); type: cell-based, human; conditions: growth inhibition at 667 nM, 69 h
Experimental: SK-OV-3 Cell Growth Inhibition Test (MTT Assay)
Cell strains: SK-OV-3 (human ovarian cancer cell strains); MTT; antitumor compounds; DMSO.
as §1
Culture medium: 90% McCoy's 5A+10% FBS; Pancreatin (0.25% (w/v) solution was formulated with PBS, 0.53 mM of EDTA was added in the formulation); PBS; 96-well culture plate.
as §3, §4, §5
4. The pancreatin was sucked out. The culture plate was placed in an incubator. Digestion was carried out for about 5 min at 37° C.;
as §6, with “5. 4.5” for “5. 3”, “for 69” for “for 70”
as §7, §8, §9
9. 100 μL of DMSO was added in each well and vibrated to dissolve;
as §11, §12, §13, §14, §15, §16

22Rv1 cells = experiment: 22Rv1 cell growth inhibition test (SRB assay); type: cell-based, human; conditions: growth inhibition at 222 nM, 73 h
Experimental: 22Rv1 Cell Growth Inhibition Test (SRB Assay)
Cell strains: 22Rv1 (human prostate cancer cell strains); SRB: 0.4% (w/v) working solution was formulated with 1% glacial acetic acid, reserved at 4° C.; antitumor compounds; DMSO.
as §1, §2, §3, §4
(§17) 3. 1.5 mL of 0.25% pancreatin was added to the plate to infiltrate the cells;
(§18) 4. The pancreatin was sucked out. The culture plate was placed in an incubator. Digestion was carried out for about 3 min at 37° C.;
as §6, with “5. 4” for “5. 3”, “uniform single” for “uniform”, “culture plate” for “culture disc”, “by 7000” for “by 4000”, “for 73” for “for 70”
(§19) 6. The culture solution was sucked out. 100 uL of TCA fixed cells which were diluted to 10% were added to each well. The plate was kept in a refrigerator for 1 h at 4° C.
(§20) 7. TCA stationary liquid was sucked out. Each well was washed with 150 μL of ddH2O five times;
(§21) 8. After the stationary liquid was cleansed, the plate was dried in the air at the room temperature;
(§22) 9. 60 μL of SRB staining solution was added in each well. The well was stained for 15 min at the room temperature;
(§23) 10. The SRB staining solution was sucked out. Each well was washed with 150 μL of 1% glacial acetic acid five times;
(§24) 11. After the SRB staining solution was cleansed, the plate was dried in the air at the room temperature;
(§25) 12. 100 μL of 10 mM Tris was added in each well. The plate was vibrated to dissolve out SRB;
(§26) 13. OD values were determined at 570 nM.
as §12, §13, §14, §15, §16

BxPc-3 cells = experiment: BxPc-3 cell growth inhibition test (MTT assay); type: cell-based, human; conditions: growth inhibition at 2000 nM, 70 h
Experimental: BxPc-3 Cell Growth Inhibition Test (MTT Assay)
Cell strains: BxPC-3 (human pancreatic cancer cell strains); MTT; antitumor compounds; DMSO.
as §1, §2, §3, §4, §5
4. The culture plate was placed in an incubator. Digestion was carried out for about 8 min at 37° C.;
as §6, with “5. 4.5” for “5. 3”, “by 5000” for “by 4000”
as §7, §8, §9, §10, §11, §12, §13, §14, §15, §16

MDA-MB-453 cells = experiment: MDA-MB-453 cell growth inhibition test (SRB assay); type: cell-based, human; conditions: growth inhibition at 2000 nM, 69.5 h
Experimental: MDA-MB-453 Cell Growth Inhibition Test (SRB Assay)
Cell strains: MDA-MB-453 (human breast cancer cell strains); SRB: 0.4% (w/v) working solution was formulated with 1% glacial acetic acid, reserved at 4° C.; antitumor compounds; DMSO.
as §1
Culture medium: 90% L15+10% FBS; pancreatin (0.25% (w/v) solution was formulated with PBS, 0.53 mM of EDTA was added in the formulation); PBS; 96-well culture plate.
as §3, §4, §17, §18
as §6, with “5. 4” for “5. 3”, “uniform single” for “uniform”, “culture plate” for “culture disc”, “by 7000” for “by 4000”, “well.” for “well. The plate was further incubated for 70 h under 5% CO2 at 37° C.;”
The plate was further incubated for 69.5 h under 5% CO2 at 37° C.;
as §19, §20, §21, §22, §23, §24, §25, §26, §12, §13, §14, §15, §16

Row | SMILES | solubility of the compound in water [1] | Inhibition Ratio (%) (NCI-H446 cells) | Inhibition Ratio (%) (SK-OV-3 cells) | Inhibition Ratio (%) (22Rv1 cells) | Inhibition Ratio (%) (BxPc-3 cells) | Inhibition Ratio (%) (MDA-MB-453 cells)
1 | CC(=O)O.COc1cccc2c1C(=O)c1c(O)c3c(c(O)c1C2=O)CC(O)(C(=O)COC(=O)CCC(=O)N1CCN(CCCN(C)C)CC1)CC3O[C@H]1C[C@H](n2cccc2)[C@H](O)[C@H](C)O1 (stereo partly drawn) [Example 87, 10-((3′-(pyrrol-1-yl)-2′,3′,6′-trideoxy-alphal-l-lyxo-hexylpyranyl)oxy)-7,8,9,10-tetrahydro-6,8,11-trihydroxy-13-oxo-14-(4-(4-(3-(dimethylamino)propyl)piperazin-1-yl)-4-oxo-butyrato)-1-methoxy-5,12-naphthalenedione acetate] | more than 16 mg/ml |  |  |  |  | 
2 | COc1cccc2c1C(=O)c1c(O)c3c(c(O)c1C2=O)CC(O)(C(=O)COC(=O)CCCC(=O)Nc1ccc(CN2CCOCC2)cc1)CC3OC1CC(n2cccc2)C(O)C(C)O1 (stereo not shown) [Example 3] |  | 60.8 | 62.5 | 61.9 | 81.2 | 73.9
3 | COc1cccc2c1C(=O)c1c(O)c3c(c(O)c1C2=O)CC(O)(C(=O)COC(=O)CCC(=O)NCCc1ccccn1)CC3OC1CC(n2cccc2)C(O)C(C)O1 (stereo not shown) [Example 34] |  | 60.7 | 59.4 | 63.3 | 84 | 80.5
4 | COc1cccc2c1C(=O)c1c(O)c3c(c(O)c1C2=O)CC(O)(C(=O)COC(=O)CCC(=O)Nc1cccnc1)CC3OC1CC(n2cccc2)C(O)C(C)O1 (stereo not shown) [Example 24] |  | 61.8 | 61.4 | 63.6 | 84.7 | 79.8
5 | COc1cccc2c1C(=O)c1c(O)c3c(c(O)c1C2=O)CC(O)(C(=O)COC(=O)CCC(=O)NCCCN1CCOCC1)CC3OC1CC(n2cccc2)C(O)C(C)O1 (stereo not shown) [Example 12] |  | 54.6 | 48.8 | 53.3 | 74.9 | 73.7
6 | COc1cccc2c1C(=O)c1c(O)c3c(c(O)c1C2=O)CC(O)(C(=O)COC(=O)CCC(=O)NCCc1ccc(S(N)(=O)=O)cc1)CC3OC1CC(n2cccc2)C(O)C(C)O1 (stereo not shown) [Example 38] |  | 62.6 | 67.6 | 56.3 | 82.4 | 75.8
7 | COc1cccc2c1C(=O)c1c(O)c3c(c(O)c1C2=O)CC(O)(C(=O)COC(=O)CCC(=O)N(CCO)CCO)CC3OC1CC(n2cccc2)C(O)C(C)O1 (stereo not shown) [Example 64] |  | 51.6 | 65.9 | 54.8 | 83.7 | 73.5
8 | COc1cccc2c1C(=O)c1c(O)c3c(c(O)c1C2=O)CC(O)(C(=O)COC(=O)CCC(=O)NN1CCOCC1)CC3OC1CC(n2cccc2)C(O)C(C)O1 (stereo not shown) [Example 10] |  | 61.1 | 71.5 | 62.7 | 85 | 78.5
9 | COc1cccc2c1C(=O)c1c(O)c3c(c(O)c1C2=O)CC(O)(C(=O)COC(=O)CCC(=O)N1CCN(CCO)CC1)CC3OC1CC(n2cccc2)C(O)C(C)O1 (stereo not shown) [Example 8] |  | 59.5 | 60 | 56.8 | 82.6 | 75.3
10 | COc1cccc2c1C(=O)c1c(O)c3c(c(O)c1C2=O)CC(O)(C(=O)COC(=O)CCC(=O)NCc1ccncc1)CC3OC1CC(n2cccc2)C(O)C(C)O1 (stereo not shown) [Example 26] |  | 66.9 | 67.6 | 60.8 | 82.7 | 79.9

From patent US9670242B2, “Tetracyclic anthraquinone derivatives” (Tianjin Hemay Bio-Tech Co., Ltd, priority 2012, dated 2017)
